According to patent US7659394B2 (Pfizer Inc, priority 2004, dated 2010):

Tests used:
[1] = molecular target: T1, human norepinephrine transporter (Homo sapiens, UniProt P23975); experiment: hNET receptor binding ([125I]-RTI-55 radioligand binding); conditions: membranes of HEK-293 cells transfected with human norepinephrine transporter, IC50 converted to Ki by Cheng-Prusoff, read-out: hNET (Ki)
T1 construct: host or cells: HEK-293
Source text: (§1) The ability of the compounds of this invention to bind to the hNET and serotonin SERT receptor can be determined using conventional radiolig and receptor binding assays. The receptors can be heterologously expressed in cell lines and experiments conducted in membrane preparations from the cell lines using procedures outlined below. IC50 concentrations can be determined by nonlinear regression of concentration-dependent reduction in specific binding. The Cheng-Prussoff equation can be used to convert the IC50 to Ki concentrations.
Cell pastes of HEK-293 cells transfected with the human norepinephrine transporter were supplied by the Pfizer Ann Arbor Protein Expression and Production group. […] Aliquots of membranes (5 mg/ml protein) were stored in liquid nitrogen until used.
(§2) The reaction was incubated by gentle agitation for 90 min at room temperature and was terminated by filtration through Whatman GF/C filter plates using a Brandel 96-well plate harvester. […] Test compounds were run in duplicate, and specific binding was defined as the difference between binding in the presence and absence of 10 μM desipramine.
(§3) Excel and GraphPad Prism software were used for data calculation and analysis. IC50 values were converted to Ki values using the Cheng-Prusoff equation.

[2] = molecular target: T2, human seritonin transporter (Homo sapiens, UniProt P31645); experiment: hSERT receptor binding ([125I]-RTI-55 radioligand binding); conditions: membranes of HEK-293 cells transfected with human seritonin transporter, IC50 converted to Ki by Cheng-Prusoff, read-out: SERT (Ki)
T2 construct: host or cells: HEK-293
T2 sequence (P31645 whole entry): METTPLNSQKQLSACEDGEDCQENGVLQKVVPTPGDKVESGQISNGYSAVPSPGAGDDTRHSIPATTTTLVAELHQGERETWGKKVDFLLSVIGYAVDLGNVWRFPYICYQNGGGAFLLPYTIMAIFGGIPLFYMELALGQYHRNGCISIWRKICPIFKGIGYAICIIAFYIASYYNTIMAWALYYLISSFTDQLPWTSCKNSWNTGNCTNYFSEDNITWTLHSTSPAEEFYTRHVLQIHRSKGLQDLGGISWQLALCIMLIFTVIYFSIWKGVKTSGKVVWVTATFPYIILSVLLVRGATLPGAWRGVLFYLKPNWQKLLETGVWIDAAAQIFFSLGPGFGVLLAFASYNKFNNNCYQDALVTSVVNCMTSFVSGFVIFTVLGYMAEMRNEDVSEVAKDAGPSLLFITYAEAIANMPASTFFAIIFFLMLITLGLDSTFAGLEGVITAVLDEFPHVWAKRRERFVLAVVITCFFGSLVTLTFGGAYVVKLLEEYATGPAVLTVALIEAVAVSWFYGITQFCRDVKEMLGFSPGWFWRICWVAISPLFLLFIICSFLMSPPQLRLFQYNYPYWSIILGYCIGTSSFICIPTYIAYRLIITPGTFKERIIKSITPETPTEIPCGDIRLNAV
Source text: as §1
Cell pastes of HEK-293 cells transfected with the human seritonin transporter were supplied by the Pfizer Ann Arbor Protein Expression and Production group. […] Aliquots of membranes (5 mg/ml protein) were stored in liquid nitrogen until used.
as §2, with “[…] citalopram.” for “μM desipramine.”
as §3

T1 sequence (P23975 whole entry): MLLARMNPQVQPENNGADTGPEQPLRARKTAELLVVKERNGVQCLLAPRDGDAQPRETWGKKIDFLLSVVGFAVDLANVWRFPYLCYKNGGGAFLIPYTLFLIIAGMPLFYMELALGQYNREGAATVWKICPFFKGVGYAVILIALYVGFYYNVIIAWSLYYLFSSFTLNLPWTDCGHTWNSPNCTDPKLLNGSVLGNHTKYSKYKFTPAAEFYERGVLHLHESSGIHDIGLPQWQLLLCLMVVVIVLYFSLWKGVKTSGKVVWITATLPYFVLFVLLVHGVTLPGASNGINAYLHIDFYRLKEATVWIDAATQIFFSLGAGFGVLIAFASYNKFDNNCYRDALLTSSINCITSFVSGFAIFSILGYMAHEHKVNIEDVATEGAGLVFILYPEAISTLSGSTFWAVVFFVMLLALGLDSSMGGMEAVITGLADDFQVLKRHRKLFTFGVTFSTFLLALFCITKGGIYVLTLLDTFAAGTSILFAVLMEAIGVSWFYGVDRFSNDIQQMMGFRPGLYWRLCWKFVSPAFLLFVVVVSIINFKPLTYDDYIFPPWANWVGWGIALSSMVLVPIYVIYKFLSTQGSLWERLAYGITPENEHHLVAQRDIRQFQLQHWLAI

| SMILES | Ki [1] [nM] | Ki [2] [nM] |
| --- | --- | --- |
| Fc1ccccc1OC(c1cccnc1)[C@@H]1CNCCO1 (mixture of isomers) [Example 23, (S)-2-[(S)-(2-Fluorophenoxy)-pyridin-3-yl-methyl]-morpholine] | 51 | 2630 |
| COc1cccc(F)c1OC(c1cccnc1)[C@H]1CNCCO1 (mixture of isomers) [Example 31, (2R,3R) and (R)-2-[(S)-(2-Fluoro-6-methoxy-phenoxy)-pyridin-3-yl-methyl]-morpholine] | 85 | 348 |
| Fc1ccc(OC(C2CC2)[C@@H]2CNCCO2)c(F)c1 (mixture of isomers) [Example 99, (2S)-2-[cyclopropyl(2,4-difluorophenoxy)methyl]morpholine] | 880 | 1270 |
| Fc1cccc(F)c1OC(Cc1ccccc1)[C@@H]1CNCCO1 (mixture of isomers) [Example 101, (2S)-2-[1-(2,6-difluorophenoxy)-2-phenylethyl]morpholine] | 66 | 912 |
| CCCC(Oc1ccccc1OCC)[C@@H]1CNCCO1 (mixture of isomers) [Example 104, (2S)-2-[(1S)-1-(2-ethoxyphenoxy)butyl]morpholine] | 2390 | 9790 |
| CCOc1ccccc1OC(CC(C)C)[C@@H]1CNCCO1 (mixture of isomers) [Example 105, (2S)-2-[(1S)-1-(2-ethoxyphenoxy)-3-methylbutyl]morpholine] | 1500 | 5590 |
| CCOc1ccccc1OC(CC)[C@@H]1CNCCO1 (mixture of isomers) [Example 106] | 54 | ≥ 10000 |
| Cc1coc(C(Oc2c(F)cccc2F)[C@@H]2CNCCO2)n1 (mixture of isomers) [Example 134, (2S)-2-[(2,6-difluorophenoxy)(4-methyl-1,3-oxazol-2-yl)methyl]morpholine] | 18 | ≥ 10000 |
| CCOc1ncccc1OC(CC)[C@@H]1CNCCO1 (mixture of isomers) [Example 136, (2S)-2-{1-[(2-ethoxypyridin-3-yl)oxy]propyl}morpholine] | 102 | 6140 |
| Fc1cccc(F)c1OC(c1cc2ccccc2o1)[C@@H]1CNCCO1 (mixture of isomers) [Example 143, (2S)-2-[1-benzofuran-2-yl(2,6-difluorophenoxy)methyl]morpholine] | 896 | 3320 |
| Fc1cccc(F)c1OC(C1=CCCC1)[C@@H]1CNCCO1 (mixture of isomers) [Example 146, (2S)-2-[(S)-cyclopent-1-en-1-yl(2,6-difluorophenoxy)methyl]morpholine] | 20 | 3700 |
| CCOc1ccccc1OC(c1ncco1)[C@@H]1CNCCO1 (mixture of isomers) [Example 195, (S)-2-[(2-ethoxyphenoxy)(1,3-oxazol-2-yl)methyl]morpholine] | 10 | 7060 |
| Fc1cccc(F)c1OC(c1ncco1)[C@@H]1CNCCO1 (mixture of isomers) [Example 196, (S)-2-[(2,6-difluorophenoxy)(1,3-oxazol-2-yl)methyl]morpholine] | 9 | ≥ 10000 |
| COc1cccc(F)c1OC(c1cccnc1)[C@H]1CNCCO1 (mixture of isomers) [Example 202, (2R)-2-[(2-fluoro-6-methoxyphenoxy)(pyridin-3-yl)methyl]morpholine] | 45 | 722 |
| Cc1ccccc1-c1ccccc1OCC1CNCCO1 (racemic) [Example 88, 2-(2′-Methyl-biphenyl-2-yloxymethyl)-morpholine] | 633 | ≥ 10000 |
| N#Cc1ccccc1O[C@@H](c1ccccn1)[C@@H]1CNCCO1 (single isomer, unassigned) [Example 22 (2S, 3R)] | 4820 | 6670 |
| CCOc1ccccc1O[C@H](c1cccnc1)[C@@H]1CNCCO1 (single isomer, unassigned) [Example 25] | 124 | ≥ 10000 |
| Cc1ccc(-c2cc(F)ccc2OCC2CNCCO2)cc1 (single isomer, unassigned) [Example 75] | 22 | 849 |
| Fc1ccccc1OC(c1ccccn1)[C@@H]1CNCCO1 (single isomer, unassigned) [Example 120] | 10 | ≥ 10000 |
| Fc1ccccc1OC(c1ccccn1)[C@@H]1CNCCO1 (single isomer, unassigned) [Example 121] | 470 | ≥ 10000 |

| SMILES | Ki [1] [nM] | Ki [2] [nM] |
| --- | --- | --- |
| Fc1ccc(OC(c2cccnc2)C2CNCCO2)c(Cl)c1 (stereo in doubt) [Example 19, (S)-2-[(R)-(2-Chloro-4-fluoro-phenoxy)-pyridin-3-yl-methyl]-morpholine] | 1020 | 74 |
| c1ccc(C(Oc2ccc3ccoc3c2)C2CNCCO2)cc1 (stereo in doubt) [Example 45, (R)-2-[(S)-(Benzofuran-6-yloxy)-phenyl-methyl]-morpholine] | 10 | 45 |
| CCOc1ccccc1OC(c1cccc(F)c1)C1CNCCO1 (stereo in doubt) [Example 70, (R)-2-[(S)-(2-Ethoxy-phenoxy)-(3-fluoro-phenyl)-methyl]-morpholine] | 11 | 818 |
| Fc1ccc(Oc2nccnc2OCC2CNCCO2)cc1 (stereo in doubt) [Example 78, (S)-2-[3-(4-Fluoro-phenoxy)-pyrazin-2-yloxymethyl]-morpholine] | 7970 | ≥ 10000 |
| CCOc1ccccc1OC(c1cccc[n+]1[O-])[C@@H]1CNCCO1 (stereo in doubt) [Example 100, (2S)-2-[(S)-(2-ethoxyphenoxy)(1-oxidopyridin-2-yl)methyl]morpholine] | 152 | ≥ 10000 |
| Fc1cccc(C2CC2)c1O[C@@H](c1ccccc1)C1CNCCO1 (stereo in doubt) [Example 184, (2S)-2-[(S)-(2-cyclopropyl-6-fluorophenoxy)(phenyl)methyl]morpholine] | 6 | 460 |
| FC(F)(F)Oc1ccccc1O[C@@H](c1ccccc1)[C@@H]1CNCCO1 [Example 1, (S)-2-[(S)-Phenyl-(2-trifluoromethoxy-phenoxy)-methyl]-morpholine] | 9.9 | 3940 |
| CCSc1ccccc1O[C@@H](c1ccccc1)[C@@H]1CNCCO1 [Example 2, (S)-2-[(S)-(2-Ethylsulfanyl-phenoxy)-phenyl-methyl]-morpholine] | 6.3 | 564 |
| CC(C)Cc1ccccc1O[C@@H](c1ccccc1)[C@@H]1CNCCO1 [Example 3, (S)-2-[(S)-(2-isobutyl-phenoxy)-phenyl-methyl]-morpholine] | 33 | 1580 |
| Brc1ccccc1O[C@@H](c1ccccc1)[C@@H]1CNCCO1 [Example 4, (S)-2-[(S)-(2-Bromo-phenoxy)-phenyl-methyl]-morpholine] | 1.6 | 708 |
| C=Cc1ccccc1O[C@@H](c1ccccc1)[C@@H]1CNCCO1 [Example 5, (S)-2-[(S)-Phenyl-(2-vinyl-phenoxy)-methyl]-morpholine] | 13 | 1180 |
| COCc1ccccc1O[C@@H](c1ccccc1)[C@@H]1CNCCO1 [Example 7, (S)-2-[(S)-(2-Methoxymethyl-phenoxy)-phenyl-methyl]-morpholine] | 17 | 6610 |
| FC(F)(F)c1ccccc1O[C@@H](c1ccccc1)[C@@H]1CNCCO1 [Example 8, (S)-2-[(S)-Phenyl-(2-trifluoromethyl-phenoxy)-methyl]-morpholine] | 4.2 | 4710 |
| c1ccc(Cc2ccccc2O[C@@H](c2ccccc2)[C@@H]2CNCCO2)cc1 [Example 9, (S)-2-[(S)-(2-Benzyl-phenoxy)-phenyl-methyl]-morpholine] | 15 | 967 |
| c1ccc([C@H](Oc2ccccc2-c2ccncc2)[C@@H]2CNCCO2)cc1 [Example 10, (S)-2-[(S)-Phenyl-(2-pyridin-4-yl-phenoxy)-methyl]-morpholine] | 689 | ≥ 10000 |
| c1ccc([C@H](Oc2ccccc2C2CC2)[C@@H]2CNCCO2)cc1 [Example 11, (S)-2-[(S)-(2-Cyclopropyl-phenoxy)-phenyl-methyl]-morpholine] | 1.8 | 452 |
| c1ccc([C@H](Oc2cccc3ccccc23)[C@@H]2CNCCO2)cc1 [Example 12, (S)-2-[(S)-(Naphthalen-1-yloxy)-phenyl-methyl]-morpholine] | 6.7 | 6.4 |
| c1ccc([C@H](Oc2ccccc2-c2cccnc2)[C@@H]2CNCCO2)cc1 [Example 13, (S)-2-[(S)-Phenyl-(2-pyridin-3-yl-phenoxy)-methyl]-morpholine] | 18 | 4100 |
| N#Cc1ccccc1O[C@@H](c1ccccn1)[C@@H]1CNCCO1 [Example 22 (2S, 3S), (2S,3S)-2-(Morpholin-2-yl-pyridin-2-yl-methoxy)-benzonitrile] | 12 | – |
